The values that follow come from patent US20240199605A1, “SMALL MOLECULAR INHIBITORS OF NF-kB INDUCING KINASE” (Janssen Pharmaceutica NV, priority 2019, published 2024).

Each structure is given as a SMILES string. Bounds are passed on as bounds.

Assay [1] addresses recombinant human NF-kappaB-inducing kinase (NIK/MAP3K14) (Homo sapiens (Human), UniProt Q99558). Put plainly: Inhibition of auto-phosphorylation of recombinant human NIK/MAP3K14 (AlphaScreen). It is filed as biochemical. The settings on record: NIK auto-phosphorylation, 5 μM ATP, 1 nM NIK, 2 h at 25° C.; average of values. The procedure, abridged:
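AlphaScreen read-out (anti-phospho-IKK Ser176/180 antibody, Protein A acceptor and glutathione donor beads) of NIK auto-phosphorylation. Reaction: 1 nM enzyme, 5 μM ATP, Tris pH 7.5 buffer with Mg2+ and vanadate, 2 h at 25° C., final DMSO 0.7%. IC50 came from a sigmoidal curve fit.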
For orientation: Alpha assays give light when donor and acceptor beads are brought close together.

The subject of assay [2] is p-IKKα levels in L363 (NIK translocated multiple myeloma) cells. Put plainly: Effect of compounds on p-IKKα levels in L363 cells (AlphaLISA SureFire Ultra). It counts as cell-based, human. The note with it: Homo sapiens, L-363, 6 h, BAFF stimulated, MG132, 6 h, average of values, read-out: Assay 2 IC50. In a few lines: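 Inhibition of p-IKKα (Ser176/180) read by AlphaLISA after 6 h, 37 °C compound exposure (11-point 1:3 series, 0.3% DMSO) of L363 cells pre-incubated overnight ± 250 ng/ml BAFF and plated ± BAFF ± 10 μM MG132. Normalised to BAFF/MG132/DMSO and unstimulated controls; IC50 by sigmoidal fitting, duplicates.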

recombinant human NF-kappaB-inducing kinase (NIK/MAP3K14), sequence (Q99558 whole entry): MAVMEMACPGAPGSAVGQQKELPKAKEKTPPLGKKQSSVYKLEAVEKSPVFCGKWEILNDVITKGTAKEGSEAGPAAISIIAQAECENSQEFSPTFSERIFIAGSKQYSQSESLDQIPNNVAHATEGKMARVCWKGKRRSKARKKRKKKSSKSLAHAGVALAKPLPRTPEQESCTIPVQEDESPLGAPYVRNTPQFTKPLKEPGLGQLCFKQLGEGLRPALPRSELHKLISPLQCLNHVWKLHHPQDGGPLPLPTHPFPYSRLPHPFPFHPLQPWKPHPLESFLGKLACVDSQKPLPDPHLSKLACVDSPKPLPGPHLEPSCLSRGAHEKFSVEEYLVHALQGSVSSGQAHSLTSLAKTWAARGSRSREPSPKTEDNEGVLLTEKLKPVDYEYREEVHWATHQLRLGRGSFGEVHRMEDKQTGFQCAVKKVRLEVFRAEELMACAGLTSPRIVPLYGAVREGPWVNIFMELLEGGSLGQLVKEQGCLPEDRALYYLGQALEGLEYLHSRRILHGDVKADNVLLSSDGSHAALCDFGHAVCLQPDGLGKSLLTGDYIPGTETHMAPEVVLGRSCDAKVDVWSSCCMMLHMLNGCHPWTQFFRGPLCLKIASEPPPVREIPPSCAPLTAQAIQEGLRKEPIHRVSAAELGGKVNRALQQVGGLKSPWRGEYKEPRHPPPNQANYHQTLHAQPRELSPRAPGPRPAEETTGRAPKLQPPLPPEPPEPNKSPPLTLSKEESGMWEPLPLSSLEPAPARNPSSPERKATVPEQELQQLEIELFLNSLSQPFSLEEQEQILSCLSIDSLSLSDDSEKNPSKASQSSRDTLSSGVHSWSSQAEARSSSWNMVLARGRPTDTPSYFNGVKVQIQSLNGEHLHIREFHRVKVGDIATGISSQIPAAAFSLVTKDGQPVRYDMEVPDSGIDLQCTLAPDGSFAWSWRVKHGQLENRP

Turning to `Cc1cc(-c2cccc(C#C[C@]3(O)CCN(C)C3=O)c2)cc2c(N)ncnc12` [Example 110, (R)-3-((3-(4-Amino-8-methylquinazolin-6-yl)phenyl)ethynyl)-3-hydroxy-1-methylpyrrolidin-2-one], the IC50 (as a rule, the concentration that gives 50% inhibition) is ≤ 0.5 nM in assay [1] and 11 nM in assay [2].

Regarding `CN1CC[C@@](O)(C#Cc2cccc(-c3cc4c(N)ncnc4cn3)c2)C1=O` [Example 111, (R)-3-[2-[3-(4-Aminopyrido[3,4-d]pyrimidin-6-yl)phenyl]ethynyl]-3-hydroxy-1-methyl-pyrrolidin-2-one], the IC50 in assay [1] was 1.2 nM; in assay [2], 160 nM.

Turning to `CN1CC[C@@](O)(C#Cc2cccc(-c3ccc4c(Br)cnc(N)c4n3)c2)C1=O` [Example 112, (R)-3-[2-[3-(8-Amino-5-bromo-1,7-naphthyridin-2-yl)phenyl]ethynyl]-3-hydroxy-1-methyl-pyrrolidin-2-one], the IC50 in assay [1] was ≤ 0.5 nM; in assay [2], 4.8 nM.

For the compound `CN1CC[C@@](O)(C#Cc2cccc(-c3cc(F)c4ncnc(N)c4c3)c2)C1=O` [Example 113, (R)-3-[2-[3-(4-Amino-8-fluoro-quinazolin-6-yl)phenyl]ethynyl]-3-hydroxy-1-methyl-pyrrolidin-2-one], the IC50 in assay [1] was ≤ 0.5 nM; in assay [2], 92 nM.

As for `COc1cc(-c2cccc(C#C[C@]3(O)CCN(C)C3=O)c2)cc2c(N)ncnc12` [Example 114, (R)-3-((3-(4-Amino-8-methoxyquinazolin-6-yl)phenyl)ethynyl)-3-hydroxy-1-methylpyrrolidin-2-one], the IC50 in assay [1] was ≤ 0.5 nM; in assay [2], 120 nM.

Turning to `CN1CC[C@@](O)(C#Cc2cccc(-c3cc(C(F)(F)F)c4ncnc(N)c4c3)c2)C1=O` [Example 115, (R)-3-((3-(4-Amino-8-(trifluoromethyl)quinazolin-6-yl)phenyl)ethynyl)-3-hydroxy-1-methylpyrrolidin-2-one], the 50% inhibitory concentration (IC50) was ≤ 0.5 nM in assay [1] and 42 nM in assay [2].

Consider `CN1CC[C@@](O)(C#Cc2cccc(-c3nc4c(N)nccc4s3)c2)C1=O` [Example 116, (R)-3-((3-(4-Aminothiazolo[4,5-c]pyridin-2-yl)phenyl)ethynyl)-3-hydroxy-1-methylpyrrolidin-2-one], for which the IC50 in assay [1] came to 0.9 nM; in assay [2], 47 nM.

Turning to `CN1CC[C@@](O)(C#Cc2cccc(-c3cc(Cl)c4ncnc(N)c4c3)c2)C1=O` [Example 117, (R)-3-((3-(4-Amino-8-chloroquinazolin-6-yl)phenyl)ethynyl)-3-hydroxy-1-methylpyrrolidin-2-one], the IC50 in assay [1] was ≤ 0.5 nM; in assay [2], 33 nM.

As for `CN1CC[C@@](O)(C#Cc2cccc(-c3ccc4c(C#N)cnc(N)c4n3)c2)C1=O` [Example 118, (R)-8-Amino-2-[3-[2-(3-hydroxy-1-methyl-2-oxo-pyrrolidin-3-yl)ethynyl]phenyl]-1,7-naphthyridine-5-carbonitrile], the concentration for half-maximal inhibition (IC50) in assay [1] is ≤ 0.5 nM; in assay [2], 1.5 nM.

`CN1CC[C@@](O)(C#Cc2cccc(-c3cc4c(N)nccc4cn3)c2)C1=O` [Example 119, (R)-3-[2-[3-(5-Amino-2,6-naphthyridin-3-yl)phenyl]ethynyl]-3-hydroxy-1-methyl-pyrrolidin-2-one]: the IC50 in assay [1] came to 0.7 nM; in assay [2], 43 nM.

On to `Cc1cnc(N)c2nc(-c3cccc(C#C[C@]4(O)CCN(C)C4=O)c3)ccc12` [Example 120, (R)-3-[2-[3-(8-Amino-5-methyl-1,7-naphthyridin-2-yl)phenyl]ethynyl]-3-hydroxy-1-methyl-pyrrolidin-2-one], for which the IC50 was ≤ 0.5 nM in assay [1] and 21 nM in assay [2].

As for `CN1CC[C@@](O)(C#Cc2cccc(-c3ncc4c(-c5ccccc5)cnc(N)c4n3)c2)C1=O` [Example 121, (R)-3-((3-(8-Amino-5-phenylpyrido[3,4-d]pyrimidin-2-yl)phenyl)ethynyl)-3-hydroxy-1-methylpyrrolidin-2-one], the IC50 in assay [1] is 0.7 nM; in assay [2], 42 nM.

Turning to `CN1CC[C@@](O)(C#Cc2cccc(-c3ncc4c(-c5cnn(C)c5)cnc(N)c4n3)c2)C1=O` [Example 122, (R)-3-[2-[3-[8-Amino-5-(1-methylpyrazol-4-yl)pyrido[3,4-d]pyrimidin-2-yl]phenyl]ethynyl]-3-hydroxy-1-methyl-pyrrolidin-2-one], the IC50 in assay [1] was ≤ 0.5 nM; in assay [2] it was 2.3 nM.

Consider `CN1CC[C@@](O)(C#Cc2cccc(-c3ncc4c(-c5cnn(CC(C)(C)O)c5)cnc(N)c4n3)c2)C1=O` [Example 123, (R)-3-[2-[3-[8-Amino-5-[1-(2-hydroxy-2-methyl-propyl)pyrazol-4-yl]pyrido[3,4-d]pyrimidin-2-yl]phenyl]ethynyl]-3-hydroxy-1-methyl-pyrrolidin-2-one], for which the figures for the IC50 in assay [1] and in assay [2] were ≤ 0.5 nM and 4 nM, respectively.

Turning to `CN1CC[C@@](O)(C#Cc2cccc(-c3ncc4c(-c5cn[nH]c5)cnc(N)c4n3)c2)C1=O` [Example 124, (R)-3-[2-[3-[8-Amino-5-(1H-pyrazol-4-yl)pyrido[3,4-d]pyrimidin-2-yl]phenyl]ethynyl]-3-hydroxy-1-methyl-pyrrolidin-2-one], the IC50 in assay [1] is ≤ 0.5 nM; in assay [2], 7.7 nM.

On to `Cc1n[nH]c(C)c1-c1cnc(N)c2nc(-c3cccc(C#C[C@]4(O)CCN(C)C4=O)c3)ncc12` [Example 125, (R)-3-[2-[3-[8-Amino-5-(3,5-dimethyl-1H-pyrazol-4-yl)pyrido[3,4-d]pyrimidin-2-yl]phenyl]ethynyl]-3-hydroxy-1-methyl-pyrrolidin-2-one], for which the IC50 in assay [1] is ≤ 0.5 nM; in assay [2], 18 nM.

On to `CN1CC[C@@](O)(C#Cc2cccc(-c3cc(C#N)c4ncnc(N)c4c3)c2)C1=O` [Example 126, (R)-4-Amino-6-(3-((3-hydroxy-1-methyl-2-oxopyrrolidin-3-yl)ethynyl)phenyl)quinazoline-8-carbonitrile], for which the figures for the IC50 in assay [1] and in assay [2] were 0.9 nM and 820 nM, respectively.

As to `Cc1[nH]ncc1-c1cnc(N)c2nc(-c3cccc(C#C[C@]4(O)CCN(C)C4=O)c3)ncc12` [Example 127, (R)-3-[2-[3-[8-Amino-5-(5-methyl-1H-pyrazol-4-yl)pyrido[3,4-d]pyrimidin-2-yl]phenyl]ethynyl]-3-hydroxy-1-methyl-pyrrolidin-2-one], the IC50 in assay [1] is ≤ 0.5 nM; in assay [2], 12 nM.

Consider `CN1CC[C@@](O)(C#Cc2cccc(-c3ncc4c(C(=O)Oc5ccccc5)cnc(N)c4n3)c2)C1=O` [Example 128, (R)-Phenyl 8-amino-2-[3-[2-(3-hydroxy-1-methyl-2-oxo-pyrrolidin-3-yl)ethynyl]phenyl]pyrido[3,4-d]pyrimidine-5-carboxylate], for which the IC50 in assay [1] amounted to 0.6 nM; in assay [2], 28 nM.

With `CCc1cnc(N)c2nc(-c3cccc(C#C[C@]4(O)CCN(C)C4=O)c3)ncc12` [Example 129, (R)-3-((3-(8-Amino-5-ethylpyrido[3,4-d]pyrimidin-2-yl)phenyl)ethynyl)-3-hydroxy-1-methylpyrrolidin-2-one], the IC50 in assay [1] is ≤ 0.5 nM; in assay [2] it was 12 nM.

`CC(C)Cc1cnc(N)c2nc(-c3cccc(C#C[C@]4(O)CCN(C)C4=O)c3)ncc12` [Example 130, (R)-3-((3-(8-Amino-5-isobutylpyrido[3,4-d]pyrimidin-2-yl)phenyl)ethynyl)-3-hydroxy-1-methylpyrrolidin-2-one]: the IC50 in assay [1] is 0.7 nM; in assay [2] it was 58 nM.
